According to patent publication US7674767B2, “Nanoparticle compositions of water-soluble drugs for oral administration and preparation methods thereof” (Samyang Corporation, priority 2003, dated 2010):

Experiment: Gastrointestinal absorption test, blood concentration of ceftriaxone after intra-duodenal administration
Assay type: in vivo, Sprague Dawley rat
Conditions: intra-duodenal 40 mg/kg, normal rats
Description: Normal rat (Sprague Dawley, male, weighing about 200 g) was ether-anesthetized, and the abdomen was opened. The duodenum was taken and the nanoparticle liquid formulation containing ceftriaxone was administered thereto at 40 mg/kg as ceftriaxone.
The formulations of Examples 6 and Example 7, and Comparative Example 5 were used for test groups. The formulation of Comparative Example 5 is one containing neither ceftriaxone-counter-ion complex nor polymer, and so having lower drug entrapping rate and incapable of controlling drug dissolution compared with that of Example 6.
Blood was gathered from tail vein at 0, 0.5, 1, 1.5, 2, 3 and 4 hours after the drug administration, and analyzed according to ceftriaxone analysis method of the US Pharmacopoeia. The blood was centrifuged at 3000 rpm for 10 minutes, and pretreated by adding the equal amount of acetonitrile thereto.
As reference group 1, ceftriaxone dissolved in water was administered at 40 mg/kg via the same route as Example 6.
As reference group 2, ceftriaxone dissolved in a physiological saline was intravenously injected at 20 mg/kg.

absorption of ceftriaxone in vivo: not nearly absorbed
Structure (SMILES): CO/N=C(\C(=O)N[C@@H]1C(=O)N2C(C(=O)O)=C(CSc3nc(=O)c(=O)[nH]n3C)CS[C@H]12)c1csc(N)n1 [aqueous solution of ceftriaxone, ceftriaxone]
